Experiments:
ITK = molecular target: T1, ITK (Homo sapiens, UniProt Q08881); assay: ITK kinase profiling (BTK protocol); type: biochemical; conditions: 0.3 μM compound
T1 construct: purchased Reaction Biology Corporation
T1 sequence (Q08881 1-620): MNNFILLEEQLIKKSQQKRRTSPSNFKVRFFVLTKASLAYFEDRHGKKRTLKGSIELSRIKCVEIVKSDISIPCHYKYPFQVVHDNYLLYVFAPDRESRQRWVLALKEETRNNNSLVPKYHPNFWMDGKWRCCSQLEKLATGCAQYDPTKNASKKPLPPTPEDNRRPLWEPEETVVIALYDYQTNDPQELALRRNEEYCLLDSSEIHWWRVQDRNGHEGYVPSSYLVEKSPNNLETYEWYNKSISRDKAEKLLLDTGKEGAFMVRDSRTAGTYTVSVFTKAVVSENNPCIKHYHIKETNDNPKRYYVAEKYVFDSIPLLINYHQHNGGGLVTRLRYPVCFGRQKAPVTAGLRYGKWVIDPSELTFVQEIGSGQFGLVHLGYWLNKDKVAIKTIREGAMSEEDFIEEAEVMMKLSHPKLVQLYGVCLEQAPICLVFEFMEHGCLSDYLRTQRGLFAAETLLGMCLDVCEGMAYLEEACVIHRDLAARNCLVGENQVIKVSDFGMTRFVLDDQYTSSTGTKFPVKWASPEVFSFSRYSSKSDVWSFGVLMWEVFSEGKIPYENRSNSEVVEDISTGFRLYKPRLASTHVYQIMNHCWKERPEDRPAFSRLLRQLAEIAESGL
Description: (§1) BTK assay: In vitro profiling protein kinases was performed using the “HotSpot” assay platform. Briefly, specific kinase/substrate pairs along with required cofactors were prepared in reaction buffer. Compounds were prepared as 10 mM stock solutions in DMSO. Compounds were delivered into the reaction, followed 15-20 minutes later by addition of a mixture of ATP (Sigma, St. Louis Mo.) and ^33P ATP (Perkin Elmer, Waltham Mass.) to a final concentration of 10 μM. […] IC50 values and curve fits were obtained using Prism (GraphPad Software). Buffer Conditions: 20 mM Hepes (pH 7.5), 10 mM MgCl2, 1 mM EGTA, 0.02% Brij35, 0.02 mg/mL BSA, 0.1 mM Na3VO4, 2 mM DTT, 1% DMSO.

CD69+B220+ cells = assay: B cell activation assay (IgD-stimulated splenocytes, CD69+B220+ cells by FACS); type: cell-based; conditions: 100 nM compound, mouse splenocytes, IgD 3 μg/mL, 4 h
Description: 1 Female mouse approximately 2 months old was euthanized with CO2 and the spleen removed. The tissue was homogenized with a polished glass microscope slide. The cells were collected in 5 mL complete medium (RPMI+10% FBS+pen/strep), placed in a 15 mL falcon tube and centrifuged at 500×g for 5 min. The supernatant was discarded and the pellet was resuspended in 3 mL of ACK lysis buffer (NH4Cl 0.17M, KHCO3 10 mM, EDTA-Na2 0.1 mM, pH 7.2), incubated at 37° C. for 5 min. 2 mL complete medium was added and the mixture centrifuged at 500×g for 5 min. The supernatant was discarded and the pellet resuspended in 1 mL complete medium. The mixture was passed through a […] cell strainer and collect in 50 mL falcon tube. Enough medium was added to have a total of 10 mL. The cells were counted and seeded in 24 or 48-well plate in 1 mL complete medium at 10^6 cells/mL. The plate was placed in a 37° C. incubator for 15 min. The cells were treated for 30 min at 37° C. with 100 nM test compound dissolved in 100% DMSO. 3 μL IgD (Accurate chemical and scientific corp.) was added at a final concentration of 3 μg/mL and the mixture incubated at 37° C. for 4 h. The cells were collected in 1.5 mL eppendorf tubes, centrifuged at 500×g for 5 min and then resuspended in 100 μL of PBS+2% FBS. The following antibodies were added: α-B220 PE (pharmingen #553090), α-CD69 APC (pharmingen #60689), live/dead fixable aqua dead cell stain kit (life technologies #L34957) all at 1:300, and the mixture incubated for 15 min at 4° C. in the dark. To this was added 900 μL of PBS+2% FBS and the mixture centrifuged at 500×g for 5 min. The supernatant was removed and the pellet resuspended in 300 μL of PBS+2% FBS and mixed well. The mixture was transferred to a cytometer tube. The samples were run in the FACS Canto II cytometer and quantified by the number of CD69+B220+ cells as a percentage of the total number of B220+ alive cells.

BTK = molecular target: T2, BTK (Homo sapiens, UniProt Q06187); assay: BTK kinase assay (HotSpot, 33P ATP); type: biochemical; conditions: for BTK @ 0.1 μM (% Inh): 0.1 μM compound; for IC50: 10 dose IC50, 10 μM ATP; for BTK @ 0.01 μM (% Inh): 0.01 μM compound
T2 construct: purchased Reaction Biology Corporation
T2 sequence (Q06187 whole entry): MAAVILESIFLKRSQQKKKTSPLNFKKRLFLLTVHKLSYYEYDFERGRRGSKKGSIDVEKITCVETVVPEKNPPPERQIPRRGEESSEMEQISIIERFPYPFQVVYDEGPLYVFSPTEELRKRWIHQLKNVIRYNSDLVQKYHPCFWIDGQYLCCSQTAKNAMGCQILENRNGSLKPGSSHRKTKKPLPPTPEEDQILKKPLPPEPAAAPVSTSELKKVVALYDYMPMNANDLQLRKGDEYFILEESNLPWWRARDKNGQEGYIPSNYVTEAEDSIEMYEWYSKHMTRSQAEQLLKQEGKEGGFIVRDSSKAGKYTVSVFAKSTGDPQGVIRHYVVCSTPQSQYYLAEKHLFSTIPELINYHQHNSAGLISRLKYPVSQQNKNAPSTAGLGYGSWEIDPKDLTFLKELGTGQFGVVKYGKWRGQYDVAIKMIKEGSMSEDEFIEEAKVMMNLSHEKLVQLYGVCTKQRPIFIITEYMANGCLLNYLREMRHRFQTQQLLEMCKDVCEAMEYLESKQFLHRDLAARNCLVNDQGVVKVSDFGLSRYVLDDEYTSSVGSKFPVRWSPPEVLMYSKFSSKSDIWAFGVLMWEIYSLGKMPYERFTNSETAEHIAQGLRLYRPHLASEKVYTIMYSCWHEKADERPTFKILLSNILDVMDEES
Procedure, shortened: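 In 20 mM Hepes (pH 7.5) with 10 mM MgCl2, 1 mM EGTA, 0.1 mM Na3VO4, 2 mM DTT, 0.02% Brij35, 0.02 mg/mL BSA and 1% DMSO, kinase and substrate were exposed to ten compound doses for 15–20 min.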

TEC = molecular target: T3, TEC (Homo sapiens, UniProt P42680); assay: TEC kinase profiling (BTK protocol); type: biochemical; conditions: 0.3 μM compound
T3 construct: purchased Reaction Biology Corporation
T3 sequence (P42680 1-631): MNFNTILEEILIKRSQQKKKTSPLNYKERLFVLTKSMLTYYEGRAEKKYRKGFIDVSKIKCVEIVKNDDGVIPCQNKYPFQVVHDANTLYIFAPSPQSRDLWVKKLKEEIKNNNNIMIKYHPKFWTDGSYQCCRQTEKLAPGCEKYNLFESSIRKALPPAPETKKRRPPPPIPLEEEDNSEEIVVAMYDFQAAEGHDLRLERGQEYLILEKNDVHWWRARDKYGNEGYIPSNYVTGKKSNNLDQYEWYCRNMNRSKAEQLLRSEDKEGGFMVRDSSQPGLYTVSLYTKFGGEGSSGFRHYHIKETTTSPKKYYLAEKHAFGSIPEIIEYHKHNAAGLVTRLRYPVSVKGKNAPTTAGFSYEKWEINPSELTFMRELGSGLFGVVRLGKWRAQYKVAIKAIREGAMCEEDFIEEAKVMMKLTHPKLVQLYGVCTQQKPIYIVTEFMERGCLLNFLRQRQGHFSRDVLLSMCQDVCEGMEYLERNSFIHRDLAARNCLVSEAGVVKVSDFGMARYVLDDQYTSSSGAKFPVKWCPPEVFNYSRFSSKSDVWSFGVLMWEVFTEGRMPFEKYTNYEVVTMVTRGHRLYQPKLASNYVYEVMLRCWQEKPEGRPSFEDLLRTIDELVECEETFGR
Description: as §1

PI3Kδ = molecular target: T4, PI3Kδ (Homo sapiens, UniProt O00329); assay: PI3Kδ kinase assay (HTRF, PIP3 detection); type: biochemical; conditions: for PI3Kδ @ 0.01 μM (% Inh): 0.01 μM compound; for PI3Kδ @ 0.1 μM (% Inh): 0.1 μM compound; for IC50: 10 dose IC50, 10 μM ATP
T4 construct: purchased Reaction Biology Corporation
T4 sequence (O00329 whole entry): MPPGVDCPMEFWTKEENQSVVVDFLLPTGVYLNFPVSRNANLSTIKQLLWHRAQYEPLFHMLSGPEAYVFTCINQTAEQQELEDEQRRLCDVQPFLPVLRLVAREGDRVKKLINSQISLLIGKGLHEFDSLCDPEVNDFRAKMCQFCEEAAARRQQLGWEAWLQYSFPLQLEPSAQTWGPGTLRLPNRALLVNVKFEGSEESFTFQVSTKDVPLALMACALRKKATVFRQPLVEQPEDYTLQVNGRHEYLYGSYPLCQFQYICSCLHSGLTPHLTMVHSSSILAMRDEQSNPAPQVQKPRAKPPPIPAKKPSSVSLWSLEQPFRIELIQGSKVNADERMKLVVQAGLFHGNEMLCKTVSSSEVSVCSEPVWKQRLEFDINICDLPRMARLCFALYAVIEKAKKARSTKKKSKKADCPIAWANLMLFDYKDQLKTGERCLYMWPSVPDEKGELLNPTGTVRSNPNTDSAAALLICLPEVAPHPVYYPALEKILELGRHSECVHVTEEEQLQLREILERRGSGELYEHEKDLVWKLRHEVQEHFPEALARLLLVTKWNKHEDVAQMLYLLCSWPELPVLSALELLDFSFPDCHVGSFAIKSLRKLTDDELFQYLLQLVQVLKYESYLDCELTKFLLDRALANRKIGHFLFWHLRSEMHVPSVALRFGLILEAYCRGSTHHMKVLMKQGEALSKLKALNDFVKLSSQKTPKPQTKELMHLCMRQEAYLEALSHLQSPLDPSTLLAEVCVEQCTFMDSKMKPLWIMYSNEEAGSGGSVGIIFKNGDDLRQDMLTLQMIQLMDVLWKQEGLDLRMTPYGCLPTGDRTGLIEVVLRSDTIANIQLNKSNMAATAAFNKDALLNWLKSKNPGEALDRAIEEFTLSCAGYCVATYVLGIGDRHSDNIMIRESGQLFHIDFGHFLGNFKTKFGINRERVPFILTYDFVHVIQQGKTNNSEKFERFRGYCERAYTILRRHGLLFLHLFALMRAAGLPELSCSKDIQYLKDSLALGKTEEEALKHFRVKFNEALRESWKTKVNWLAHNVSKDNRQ
T4 sequence (P27986 whole entry partner): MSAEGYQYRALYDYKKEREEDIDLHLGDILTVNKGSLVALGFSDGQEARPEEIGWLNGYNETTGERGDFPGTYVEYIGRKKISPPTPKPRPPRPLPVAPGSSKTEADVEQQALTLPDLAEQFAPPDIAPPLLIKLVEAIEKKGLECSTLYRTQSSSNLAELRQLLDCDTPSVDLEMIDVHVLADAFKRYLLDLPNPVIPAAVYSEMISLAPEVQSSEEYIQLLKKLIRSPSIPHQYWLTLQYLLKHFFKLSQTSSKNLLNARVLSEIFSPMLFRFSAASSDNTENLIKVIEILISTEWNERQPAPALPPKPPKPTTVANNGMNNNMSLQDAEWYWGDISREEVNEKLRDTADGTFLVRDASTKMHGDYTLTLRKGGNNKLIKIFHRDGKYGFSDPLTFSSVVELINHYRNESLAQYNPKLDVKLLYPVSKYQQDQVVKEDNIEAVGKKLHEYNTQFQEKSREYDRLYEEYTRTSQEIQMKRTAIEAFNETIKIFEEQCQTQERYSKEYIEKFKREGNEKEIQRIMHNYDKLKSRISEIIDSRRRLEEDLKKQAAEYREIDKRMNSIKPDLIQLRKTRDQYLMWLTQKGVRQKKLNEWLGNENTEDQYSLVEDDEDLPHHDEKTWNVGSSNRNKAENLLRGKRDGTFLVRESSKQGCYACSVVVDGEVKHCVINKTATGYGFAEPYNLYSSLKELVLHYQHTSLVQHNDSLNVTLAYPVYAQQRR
Procedure, shortened: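 PIP3 formation read by loss of energy transfer as it displaces biotin-PIP3 from a Eu anti-GST/GST-PH/streptavidin-APC complex, calibrated against PIP3 standards.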

PI3Kα = molecular target: T5, PI3Kα (Homo sapiens, UniProt P42336); assay: PI3Kα isoform profiling (PI3Kδ protocol); type: biochemical; conditions: 0.3 μM compound
T5 construct: purchased Reaction Biology Corporation
T5 sequence (P42336 whole entry, canonical isoform): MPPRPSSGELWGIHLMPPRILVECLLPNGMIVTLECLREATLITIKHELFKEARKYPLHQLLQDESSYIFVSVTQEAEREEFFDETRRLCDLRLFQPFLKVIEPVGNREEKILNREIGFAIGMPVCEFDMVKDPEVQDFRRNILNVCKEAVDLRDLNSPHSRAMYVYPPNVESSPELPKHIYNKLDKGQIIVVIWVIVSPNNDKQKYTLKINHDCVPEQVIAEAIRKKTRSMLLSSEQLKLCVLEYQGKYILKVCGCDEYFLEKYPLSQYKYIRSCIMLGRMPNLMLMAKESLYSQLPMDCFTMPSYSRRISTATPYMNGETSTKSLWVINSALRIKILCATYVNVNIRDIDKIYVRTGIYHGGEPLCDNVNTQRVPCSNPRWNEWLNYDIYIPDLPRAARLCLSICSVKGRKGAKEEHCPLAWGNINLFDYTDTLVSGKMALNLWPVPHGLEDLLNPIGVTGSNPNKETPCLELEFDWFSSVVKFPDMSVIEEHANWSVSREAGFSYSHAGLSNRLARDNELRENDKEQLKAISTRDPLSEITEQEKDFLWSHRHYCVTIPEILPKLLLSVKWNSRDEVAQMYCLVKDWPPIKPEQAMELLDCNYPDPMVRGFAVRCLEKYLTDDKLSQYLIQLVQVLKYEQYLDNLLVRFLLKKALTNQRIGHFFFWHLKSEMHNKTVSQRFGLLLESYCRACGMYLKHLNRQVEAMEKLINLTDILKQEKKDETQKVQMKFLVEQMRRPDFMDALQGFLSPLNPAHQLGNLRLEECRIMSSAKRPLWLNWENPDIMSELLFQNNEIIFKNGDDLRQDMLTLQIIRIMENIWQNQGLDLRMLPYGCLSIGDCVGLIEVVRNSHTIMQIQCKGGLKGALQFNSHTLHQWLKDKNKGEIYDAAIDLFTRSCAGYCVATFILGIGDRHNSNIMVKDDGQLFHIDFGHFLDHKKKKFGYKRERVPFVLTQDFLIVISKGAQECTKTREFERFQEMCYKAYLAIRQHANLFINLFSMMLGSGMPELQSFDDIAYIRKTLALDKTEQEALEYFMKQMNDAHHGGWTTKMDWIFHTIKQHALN
T5 sequence (P27986 whole entry partner, canonical isoform): as the sequence (P27986 whole entry partner) above
Excerpt: PI3Kδ assay: The PIP3 product is detected by displacement of biotin-PIP3 from an energy transfer complex consisting of Europium labeled anti-GST monoclonal antibody, a GST-tagged pleckstrin homology (PH) domain, biotinylated PIP3 and Streptavidin-Allophycocyanin (APC). Excitation of Europium in the complex results in an energy transfer to the APC and a fluorescent emission at 665 nm. The PIP3 product formed by PI 3-Kinase(h) activity displaces biotin-PIP3 from the complex resulting in a loss of energy transfer and thus a decrease in signal. This is a 3-step reaction: First, the kinase reaction with PIP2 substrate is carried out in the presence of ATP (10 μM), and the reaction is quenched with stop Solution, and then finally detect by adding Detection Mixture followed by incubation (10 min). Reaction procedure: 1) Prepare substrate in freshly prepared Reaction Buffer. 2) Deliver kinase into the substrate solution and gently mix. 3) Deliver compounds in 100% DMSO (1 μM) into the kinase reaction mixture by Acoustic technology (Echo550; nanoliter range), incubate for 10 min at RT. 4) Deliver ATP into the reaction mixture to initiate the reaction. 5) Incubate for 30 min at 30° C. 6) Quench the reaction with Stop Solution. 7) Add Detection Mixture, and incubate for overnight. 8) Measure HTRF: Ex=320 nm, ratio of Em=615 nm and Em=665 nm. The emission ratio is converted into μM PIP3 production based on PIP3 standard curves. The nonlinear regression to obtain the standard curve and IC50 values are performed using Graphpad Prism software. Assay Buffer: HEPES 50 mM (pH7.0), NaN3 0.02%, BSA 0.01%, Orthovanadate 0.1 mM, 1% DMSO. Detection buffer: HEPES 10 mM (pH7.0), BSA 0.02%, KF 0.16 M, EDTA 4 mM. Substrate: 10 μM PIP2 substrate (PI(4,5)P2).
Compounds of the invention were profiled in a 10 dose IC50 panel against PI3Kα, PI3Kβ, and PI3Kγ kinases, provided by Reaction Biology Corporation, applied to the PI3Kδ protocol provided in Example B1.

| Structure (SMILES) | ITK @ 0.3 μM (% Inh) (ITK) | BTK @ 0.1 μM (% Inh) (BTK; 10 μM ATP) | IC50 (BTK) [nM] | TEC @ 0.3 μM (% Inh) (TEC) | BTK @ 0.01 μM (% Inh) (BTK; 10 μM ATP) | PI3Kδ @ 0.01 μM (% Inh) (PI3Kδ; 10 μM ATP) | PI3Kδ @ 0.1 μM (% Inh) (PI3Kδ; 10 μM ATP) | BTK @ 1 μM (% Inh) (BTK; 1 μM compound, 10 μM ATP) | PI3Kδ @ 1 μM (% Inh) (PI3Kδ; 1 μM compound, 10 μM ATP) | IC50 (PI3Kδ) [nM] | PI3Kα @ 0.3 μM (% Inh) (PI3Kα) | CD69 @ 100 nM (% Inh) (CD69+B220+ cells) |
| --- | --- | --- | --- | --- | --- | --- | --- | --- | --- | --- | --- | --- |
| COc1ccc(-c2nn(C3CCc4ccccc4C3)c3ncnc(N)c23)cc1OC (racemic) [compound 17, 3-(3,4-dimethoxyphenyl)-1-(1,2,3,4-tetrahydronaphthalen-2-yl)-1H-pyrazolo[3,4-d]pyrimidin-4-amine] | −0.36 | 41.16 | 164 | 11.45 |  |  |  |  |  |  |  | 33.56 ± 13.70 (n = 5) % Inh |
| Nc1ncnc2c1c(-c1cc(O)c(Cl)cc1Cl)nn2C1Cc2ccccc2C1 [Compound No. 103, 5-[4-amino-1-(2,3-dihydro-1H-inden-2-yl)-1H-pyrazolo[3,4-d]pyrimidin-3-yl]-2,4-dichlorophenol] |  | 47.24 | 162 |  |  |  | 72.71 | 89.82 | 94.52 | 45.7 |  | 25.06 ± 22.54 (n = 5) % Inh |
| Nc1ncnc2c1c(-c1ccc(Br)c(O)c1)nn2C1CCc2ccccc2C1 (stereo not drawn) [compound 8, 5-(4-amino-1-(1,2,3,4-tetrahydronaphthalen-2-yl)-1H-pyrazolo[3,4-d]pyrimidin-3-yl)-2-bromophenol] | 0.02 | 48.87 | 26.1 | 20.18 |  |  |  |  |  |  | 76.76 |  |

Second part, led by results:

| ITK @ 0.3 μM (% Inh) (ITK) | BTK @ 0.1 μM (% Inh) (BTK; 10 μM ATP) | IC50 (BTK) [nM] | TEC @ 0.3 μM (% Inh) (TEC) | BTK @ 0.01 μM (% Inh) (BTK; 10 μM ATP) | PI3Kδ @ 0.01 μM (% Inh) (PI3Kδ; 10 μM ATP) | PI3Kδ @ 0.1 μM (% Inh) (PI3Kδ; 10 μM ATP) | BTK @ 1 μM (% Inh) (BTK; 1 μM compound, 10 μM ATP) | PI3Kδ @ 1 μM (% Inh) (PI3Kδ; 1 μM compound, 10 μM ATP) | IC50 (PI3Kδ) [nM] | PI3Kα @ 0.3 μM (% Inh) (PI3Kα) | Structure (SMILES) | CD69 @ 100 nM (% Inh) (CD69+B220+ cells) |
| --- | --- | --- | --- | --- | --- | --- | --- | --- | --- | --- | --- | --- |
|  | 0.17 |  |  | −2.45 | 13.11 | 53.68 |  |  |  |  | NC(=O)c1cc(-c2nn(C3CCc4ccccc4C3)c3ncnc(N)c23)cc(O)c1F (stereo not drawn) [compound 131, 5-[4-amino-1-(1,2,3,4-tetrahydronaphthalen-2-yl)-1H-pyrazolo[3,4-d]pyrimidin-3-yl]-2-fluoro-3-hydroxybenzamide] | 15.73 ± 14.11 (n = 3) % Inh |
|  | 38.11 |  |  | 8.12 | 20.77 | 39.52 |  |  |  |  | CNc1cc(-c2cn(C3Cc4ccccc4C3)c3ncnc(N)c23)cc(F)c1F [compound 113, 5-[3,4-difluoro-5-(methylamino)phenyl]-7-(2,3-dihydro-1H-inden-2-yl)-7H-pyrrolo[2,3-d]pyrimidin-4-amine] | 11.61 ± 11.81 (n = 3) % Inh |
|  | 47.8 | 71.8 |  | 10.59 | 6.65 | 70.68 |  |  | 77.9 |  | NC(=O)c1cc(-c2cn(C3Cc4ccccc4C3)c3ncnc(N)c23)cc(O)c1F [compound 116, 5-[4-amino-7-(2,3-dihydro-1H-inden-2-yl)-7H-pyrrolo[2,3-d]pyrimidin-5-yl]-2-fluoro-3-hydroxybenzamide] | 20.48 ± 16.90 (n = 3) % Inh |
|  | 5.3 |  |  | 0.44 | 13.73 | 56.84 |  |  |  |  | NC(=O)c1cc(-c2nn(C3Cc4ccccc4C3)c3ncnc(N)c23)cc(O)c1F [compound 132, 5-[4-amino-1-(2,3-dihydro-1H-inden-2-yl)-1H-pyrazolo[3,4-d]pyrimidin-3-yl]-2-fluoro-3-hydroxybenzamide] | 27.67 ± 13.46 (n = 3) % Inh |

From US20210317140A1, “Heterocyclic Compounds and Methods of Use” (MEDIVATION TECHNOLOGIES, INC, priority 2013, published 2021)
